Residues, ends and D or L forms follow the SMILES beside them.
Legend:
[1] = target: T1, NCP (nucleosome core particle) (Homo sapiens, UniProt P04908+P06899+P62805+P68431); assay: biochemical; type: binding
T1 construct: made in house; host or cells: E. coli BL21(DE3)-RIL

[2] = target: T1, NCP (nucleosome core particle); assay: ITC measurement of full-length IE1, IE1-CTD and IE1ΔCTD binding to NCP at 150 mM NaCl
[3] = target: T2, human NCP carrying the E56R mutation of histone H2A (Homo sapiens, UniProt P04908+P06899+P62805+P68431, E57R); assay: ITC measurement of peptide binding to NCP reconstituted with H2A E56R mutant; details: 20°C, 10 mM Tris-HCl pH 7.5, 50 mM NaCl, Figure 3
T2 construct: made in house; host or cells: E. coli BL21(DE3)-RIL

30-nm chromatin fiber = assay: AUC sedimentation velocity of 30-nm chromatin fiber (with H1); type: biochemical, human; details: 12 x 177 bp 601 array with H1, […], peptide/protein to NCP 5:1 molar ratio, 10 mM HEPES pH 8.0, 0.1 mM EDTA, listed as LANA-CTD
Method: (§1) Recombinant human core histones were prepared as described above. Linker histone H1.4 and DNA templates of 12 tandem 177 bp repeats of the 601 sequence were cloned and purified, and reconstituted into chromatin as previously described ([Chen et al., 2013]; [Dyer et al., 2003]; [Li et al., 2010]; [Song et al., 2014]).
(§2) The reconstituted chromatin samples were subject to AUC analysis in a buffer containing 10 mM HEPES, pH 8.0 and 0.1 mM EDTA.

10-nm nucleosomal array = assay: AUC sedimentation velocity of 10-nm nucleosomal array (without H1); type: biochemical, human; details: 12 x 177 bp 601 array without H1, […], peptide to NCP 5:1 molar ratio, 10 mM HEPES pH 8.0, 0.1 mM EDTA, array alone Save 36 ± 1 S, listed as LANA-CTD
Method: as §1, §2

nucleosomal arrays = details: folding of nucleosomal arrays induced by magnesium ions; ref Chodaparambil et al., 2007; cited from earlier work
Description: For the purpose of dissecting the functions of individual NCP binding partners, one would ideally like to be able to isolate histone mutants that affect the binding of one protein but not others. The most promising such sites appear to lie in zone II and III, as they are less frequently occupied among known NCP binding proteins (Figure 2). […] Nevertheless, the identification of the E56R variant of histone H2A as an IE1-noninteracting mutant has already se ...

For `CSCC[C@H](NC(=O)[C@@H]1CCCN1C(=O)[C@H](C)NC(=O)[C@@H](NC(=O)[C@H](CO)NC(=O)[C@H](CCCCN)NC(=O)CNC(=O)CN)[C@@H](C)O)C(=O)N[C@H](C(=O)N[C@H](C(=O)N[C@@H](CCCNC(=N)N)C(=O)N[C@@H](CO)C(=O)N[C@@H](CCCCN)C(=O)N[C@@H](C)C(=O)N[C@@H](CC(=O)O)C(=O)N[C@@H](CCC(N)=O)C(=O)O)[C@@H](C)O)C(C)C` [H481A] (H-GGKSTAPMVTRSKADQ-OH), the Kd [1] was 43.4 ± 5.36 µM.

In the case of `CSCC[C@H](NC(=O)[C@@H]1CCCN1C(=O)[C@H](Cc1c[nH]cn1)NC(=O)[C@@H](NC(=O)[C@H](CO)NC(=O)[C@H](CCCCN)NC(=O)CNC(=O)CN)[C@@H](C)O)C(=O)N[C@H](C(=O)N[C@H](C(=O)N[C@@H](CCCNC(=N)N)C(=O)N[C@@H](CO)C(=O)N[C@@H](CCCCN)C(=O)N[C@@H](C)C(=O)N[C@@H](CC(=O)O)C(=O)N[C@@H](CCC(N)=O)C(=O)O)[C@@H](C)O)C(C)C` [IE1-CTD], the Kd [1] is reported as 0.42 ± 0.04 µM and the Kd [2] is reported as 2.25 ± 0.1 µM.

With `CSCC[C@H](NC(=O)CNC(=O)[C@@H]1CCCN1)C(=O)N[C@@H](CCCNC(=N)N)C(=O)N[C@@H](CC(C)C)C(=O)N[C@@H](CCCNC(=N)N)C(=O)N[C@@H](CO)C(=O)NCC(=O)N[C@@H](CCCNC(=N)N)C(=O)N[C@@H](CO)C(=O)N[C@H](C(=O)NCC(=O)N[C@@H](C)C(=O)N1CCC[C@H]1C(=O)O)[C@@H](C)O` [LANA] (H-PGMRLRSGRSTGAP-OH; N-terminus and C-terminus assumed) the “N (ITC)” value ([1]; ITC, 20°C, 10 mM Tris-HCl pH 7.5, 50 mM NaCl, human NCP, Figure 3) was 1.97, the “N (ITC), H2A E56R NCP” value [3] was 2.03 and the “effect on folding of 30-nm chromatin fiber (in words)” value (30-nm chromatin fiber) was “does not affect the folding of the 30-nm chromatin fiber”. The “effect on 10-nm nucleosomal array (in words)” value (10-nm nucleosomal array) was “slightly affected” and the “compaction of nucleosomal arrays (in words)” value (nucleosomal arrays) was “promotes the compaction of nucleosomal arrays”.

With `CSCC[C@H](NC(=O)[C@@H]1CCCN1C(=O)[C@H](Cc1c[nH]cn1)NC(=O)[C@@H](NC(=O)[C@H](CO)NC(=O)[C@H](CCCCN)NC(=O)CNC(=O)CN)[C@@H](C)O)C(=O)N[C@H](C(=O)N[C@H](C(=O)N[C@@H](CCCNC(=N)N)C(=O)N[C@@H](CO)C(=O)N[C@@H](CCCCN)C(=O)N[C@@H](C)C(=O)N[C@@H](CC(=O)O)C(=O)N[C@@H](CCC(N)=O)C(=O)O)C(C)C)C(C)C` [T485V] (H-GGKSTHPMVVRSKADQ-OH) the Kd [1] was 11.3 ± 0.73 µM.

In the case of `CSCC[C@H](NC(=O)[C@@H]1CCCN1C(=O)[C@@H](N)Cc1c[nH]cn1)C(=O)N[C@H](C(=O)N[C@H](C(=O)N[C@@H](CCCNC(=N)N)C(=O)N[C@@H](CO)C(=O)N[C@@H](CCCCN)C(=O)N[C@@H](C)C(=O)N[C@@H](CC(=O)O)C(=O)N[C@@H](CCC(N)=O)C(=O)O)[C@@H](C)O)C(C)C` [Δ476–480] (H-HPMVTRSKADQ-OH), the Kd [1] is reported as 12.1 ± 0.45 µM.

From paper PMC4764553, “Human cytomegalovirus IE1 protein alters the higher-order chromatin structure by targeting the acidic patch of the nucleosome” (eLife, 2016)
